Data on 30 compounds can be found in patent publication US20100113510A1 (priority 2006, published 2010).

Where “and” joins values, the source holds several entries; their conditions need not be identical. Identical values can stand only once. Like-named read-outs stand apart in the source and are kept apart here. A value given as a limit tells only on which side of the number the result lay.

This experiment concerns the target T1, human muscarinic acetylcholine M3 receptor (M3-ACh) (Homo sapiens, UniProt P20309).
T1 construct: expressed in transfected cells; host or cells: CHO-K1 (Chinese Hamster Ovary) cell membranes
The experiment can be described thus: biochemical. The experiment is classed as binding.

[1] abbreviates: pIC50 (M3 Binding IC50 classes).
The mark [2] stands for this setting: read-out: pIC50 (M3 Binding IC50 classes) (converted).

T1 sequence (P20309 whole entry): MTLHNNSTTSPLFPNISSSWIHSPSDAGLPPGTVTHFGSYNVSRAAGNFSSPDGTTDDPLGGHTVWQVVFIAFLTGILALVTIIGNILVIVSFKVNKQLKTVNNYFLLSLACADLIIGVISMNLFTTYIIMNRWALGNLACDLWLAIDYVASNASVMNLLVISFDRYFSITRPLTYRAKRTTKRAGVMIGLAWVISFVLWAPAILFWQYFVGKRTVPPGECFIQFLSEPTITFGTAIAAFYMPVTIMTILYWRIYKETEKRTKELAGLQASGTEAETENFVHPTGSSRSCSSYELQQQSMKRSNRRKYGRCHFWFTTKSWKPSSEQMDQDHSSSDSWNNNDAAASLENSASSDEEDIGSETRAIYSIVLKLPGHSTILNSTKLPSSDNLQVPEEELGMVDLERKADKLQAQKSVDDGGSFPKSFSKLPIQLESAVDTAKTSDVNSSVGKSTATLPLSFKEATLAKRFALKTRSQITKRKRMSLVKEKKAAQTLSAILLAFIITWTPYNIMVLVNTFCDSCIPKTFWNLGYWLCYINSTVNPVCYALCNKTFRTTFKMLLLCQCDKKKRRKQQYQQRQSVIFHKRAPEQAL

Take `C[C@@](C(=O)O[C@H]1C[N+]2(CC(=O)Nc3ccc4ncnn4c3)CCC1CC2)(c1ccccc1)N1CCCCC1` [Example 13, (3R)-1-[2-Oxo-2-([1,2,4]triazolo[1,5-a]pyridin-6-ylamino)ethyl]-3-{[(2S)-2-phenyl-2-piperidin-1-ylpropanoyl]oxy}-1-azoniabicyclo[2.2.2]octane chloride]: the 50% inhibitory concentration (IC50) (as a rule, the concentration at which inhibition is half-maximal) under setting [1] is below 2 nM.

For the compound `CC(C(=O)O[C@H]1C[N+]2(CC(=O)c3cccc(F)c3)CCC1CC2)(c1cccs1)N1CCCCC1` (single isomer, unassigned) [Example 67], the half-maximal inhibitory concentration (IC50) under setting [1] is below 2 nM.

As to `CC(C(=O)O[C@H]1C[N+]2(CCc3cccc(Cl)c3)CCC1CC2)(c1ccccc1)N1CCCCCC1` (single isomer, unassigned) [Example 86], under setting [1], the IC50 was below 2 nM.

For the compound `CC(C(=O)O[C@H]1C[N+]2(CCc3cccc(Cl)c3)CCC1CC2)(c1ccccc1)N1CCSCC1` (single isomer, unassigned) [Example 98], the IC50 under setting [1] was below 2 nM.

As to `Cc1nc(-c2ccccc2)c(NC(=O)C[N+]23CCC(CC2)[C@@H](OC(=O)[C@](C)(c2ccccc2)N2CCCCC2)C3)s1` [Example 18, (3R)-1-{2-[(2-Methyl-4-phenyl-1,3-thiazol-5-yl)amino]-2-oxoethyl}-3-{[(2S)-2-pheny1-2-piperidin-1-ylpropanoyl]oxy}-1-azoniabicyclo[2.2.2]octane chloride], the IC50 under setting [1] was in the range of 2 to 10 nM.

`CC(C(=O)O[C@H]1C[N+]2(CCCc3ccccc3)CCC1CC2)(c1ccccc1)N1CCSCC1` (single isomer, unassigned) [Example 104] came in with an IC50 under setting [1] below 2 nM.

As for `CC(C(=O)O[C@H]1C[N+]2(CCc3cccc(Cl)c3)CCC1CC2)(c1ccccc1)N1CCCCCC1` (single isomer, unassigned) [Example 87], under setting [2], the half-maximal inhibitory concentration (IC50) is below 2 nM.

With `CC(C(=O)O[C@H]1C[N+]2(Cc3nc(-c4ccccc4)no3)CCC1CC2)(c1cccs1)N1CCSCC1` (single isomer, unassigned) [Example 56], the IC50 under setting [1] was below 2 nM.

Compound `CC(C(=O)O[C@H]1C[N+]2(CC(=O)Nc3noc4ccccc34)CCC1CC2)(c1cccs1)N1CCCCC1` (single isomer, unassigned) [Example 77] had an IC50 under setting [1] below 2 nM.

On to `CC(C(=O)O[C@H]1C[N+]2(CC(=O)Nc3cnccn3)CCC1CC2)(c1cccs1)N1CCSCC1` (single isomer, unassigned) [Example 54], for which the IC50 under setting [1] was below 2 nM.

For `CC(C(=O)O[C@H]1C[N+]2(CC(=O)Nc3cccc(F)c3)CCC1CC2)(c1ccccc1)N1CCCCCC1` (single isomer, unassigned) [Example 88], the IC50 under setting [1] is below 2 nM.

For the compound `CC1(C)CN(C(C)(C(=O)O[C@H]2C[N+]3(CCCOc4ccccc4)CCC2CC3)c2ccc(Cl)cc2)C1` (single isomer, unassigned) [Example 46], under setting [1], the IC50 was above 10 nM.

In the case of `CC(C(=O)O[C@H]1C[N+]2(CC(=O)Nc3ccc(Cl)nn3)CCC1CC2)(c1cccs1)N1CCCCC1` (single isomer, unassigned) [Example 72], the IC50 under setting [1] is below 2 nM.

The compound `Cn1c(=O)oc2cc(CC[N+]34CCC(CC3)[C@@H](OC(=O)[C@](C)(c3ccccc3)N3CCCCC3)C4)ccc21` [Example 25, (3R)-1-[2-(3-Methyl-2-oxo-2,3-dihydro-1,3-benzoxazol-6-yl)ethyl]-3-{[(2S)-2-phenyl-2-piperidin-1-ylpropanoyl]oxy}-1-azoniabicyclo(2.2.2]octane bromide] returned an IC50 under setting [1] below 2 nM.

Regarding `CC(C(=O)O[C@H]1C[N+]2(CC(=O)Nc3ccc(C(F)(F)F)cn3)CCC1CC2)(c1cccs1)N1CCCCC1` (stereo partly drawn) [Example 84, (3R)-1-(2-Oxo-2-{[5-(rifluoromethyl)pyridin-2-yl]amino}ethyl)-3-{[2-piperidin-1-yl-2-(2-thienyl)propanoyl]oxy}-1-azoniabicyclo[2.2.2]octane bromide], under setting [2], the IC50 is 2 to 10 nM and < 2 nM.

Under setting [1], `CC(C(=O)O[C@H]1C[N+]2(Cc3nc4ccccc4s3)CCC1CC2)(c1cccs1)N1CCCCC1` (single isomer, unassigned) [Example 75] came in with a half-maximal inhibitory concentration (IC50) below 2 nM.

Under setting [1], `CC(C(=O)O[C@H]1C[N+]2(CCc3cccc(Cl)c3)CCC1CC2)(c1cccs1)N1CCSCC1` (single isomer, unassigned) [Example 52] had an IC50 below 2 nM.

Turning to `CC(C(=O)O[C@H]1C[N+]2(Cc3cc(-c4ccccc4)no3)CCC1CC2)(c1cccs1)N1CCSCC1` (single isomer, unassigned) [Example 55], the IC50 under setting [1] fell in the range of 2 to 10 nM.

`COc1cccc(C(=O)C[N+]23CCC(CC2)[C@@H](OC(=O)[C@](C)(c2ccccc2)N2CCCCC2)C3)c1` [Example 8, (3R)-1-[2-(3-Methoxyphenyl)-2-oxoethyl]-3-{[(2S)-2-phenyl-2-piperidin-1-ylpropanoyl]oxy}-1-azoniabicyclo[2.2.2]octane bromide] had an IC50 under setting [1] below 2 nM.

`CC(C(=O)O[C@H]1C[N+]2(CCc3cccc(Cl)c3)CCC1CC2)(c1ccccc1)N1CCOCC1` (single isomer, unassigned) [Example 80]: under setting [1], the concentration for half-maximal inhibition (IC50) lay within 2 to 10 nM.

Under setting [1], `CC(C(=O)O[C@H]1C[N+]2(CCCc3cccnc3)CCC1CC2)(c1ccccc1)N1CCSCC1` (single isomer, unassigned) [Example 106] displayed an IC50 of 2 to 10 nM.

As for `CC(C(=O)O[C@H]1C[N+]2(CCCc3cccnc3)CCC1CC2)(c1ccccc1)N1CCCCCC1` (single isomer, unassigned) [Example 96], the IC50 under setting [1] was below 2 nM.

Regarding `Cc1cnc(NC(=O)C[N+]23CCC(CC2)[C@@H](OC(=O)C(C)(c2ccccc2)N2CCCCCC2)C3)cn1` (single isomer, unassigned) [Example 91], the IC50 under setting [1] is below 2 nM.

`C[C@@](C(=O)O[C@H]1C[N+]2(CC(=O)NCc3ccccc3)CCC1CC2)(c1ccccc1)N1CCCCC1` [Example 16, (3R)-1-[2-(Benzylamino)-2-oxoethyl]-3-{[(2S)-2-phenyl-2-piperidin-1-ylpropanoyl]oxy}-1-azoniabicyclo[2.2.2]octane chloride]: the IC50 under setting [1] lay within 2 to 10 nM.

As to `C[C@@](C(=O)O[C@H]1C[N+]2(CC(=O)Nc3ccc(C#N)cc3)CCC1CC2)(c1ccccc1)N1CCCCC1` [Example 11, (3R)-1-{2-[(4-Cyanophenyl)amino]-2-oxoethyl}-3-{[(2S)-2-phenyl-2-piperidin-1-ylpropanoyl]oxy}-1-azoniabicyclo[2.2.2]octane chloride], under setting [1], the IC50 was in the range of 2 to 10 nM.

For the compound `CC(C(=O)O[C@H]1C[N+]2(CCCOc3ccccc3)CCC1CC2)(c1ccccc1)N1CCCCCC1` (single isomer, unassigned) [Example 97], the IC50 under setting [1] is below 2 nM.

For the compound `Cc1cnc(NC(=O)C[N+]23CCC(CC2)[C@@H](OC(=O)C(C)(c2cccs2)N2CCCCC2)C3)cn1` (single isomer, unassigned) [Example 76], the IC50 under setting [1] is below 2 nM.

As to `CC(C(=O)O[C@H]1C[N+]2(CC(=O)Nc3ccon3)CCC1CC2)(c1ccccc1)N1CCSCC1` (single isomer, unassigned) [Example 102], under setting [1], the IC50 was below 2 nM.

Under setting [1], `CC(C(=O)O[C@H]1C[N+]2(CCCc3ccccc3)CCC1CC2)(c1cccs1)N1CCSCC1` (single isomer, unassigned) [Example 50] came in with an IC50 below 2 nM.

As for `C[C@@](C(=O)O[C@H]1C[N+]2(CC(=O)c3ccccc3)CCC1CC2)(c1ccccc1)N1CCCCC1` [Example 9, (3R)-l-(2-Oxo-2-phenylethyl)-3-{[(2S)-2-phenyl-2-piperidin-1-ylpropanoyl]oxy}-1-azoniabicyclo[2.2.2]octane bromide], the concentration for half-maximal inhibition (IC50) under setting [1] is below 2 nM.
